Counter-ions that a name gives are not always drawn. Where no end group is shown, it is not given here. [ ]: non-standard residue; d: D form. Hyp = O=C(O)[C@@H]1C[C@@H](O)CN1; Orn = NCCC[C@H](N)C(=O)O; Dab = NCC[C@H](N)C(=O)O; Dap = NC[C@H](N)C(=O)O
System: PAR-2
Assay: Inhibition of PAR-2 activating peptide (AP2) calcium signaling in cells pretreated with antagonist
Format: cell-based, human
Parameters: key to PAR-2 AP2 Signaling Treated/Control (T/C) / PAR-2 AP2 Signaling Treated/Control: AUC of calcium mobilization, treated ÷ control wells
Settings: AUC of calcium mobilization treated/control, initially screened at 1 mM compound; for PAR-2 AP2 Signaling Treated/Control: mimetic antagonists; for PAR-2 AP2 Signaling Treated/Control (T/C): peptides
Method: In order to assess the potential of peptides and molecules selected above to block PAR-2 signaling, cells were pretreated with potential antagonist peptides for a predetermined amount of time and were subsequently treated with various GPCR agonists. Confluent Lewis lung carcinoma (LLC) cells were loaded for 30-60 minutes with the fluorescent dye Fluo-4. Final concentration 4 uM Fluo-4, 0.02% pluronic acid in physiological buffer. Cells were then washed with assay buffer, (HBSS containing 1 mM CaCl2, 1 mM MgSO4, and 2.5 mM probenecid). Cells were stimulated with various doses of PAR-2 activating peptide, PAR-1 activating peptide or ATP. Fluorescence was monitored using a Wallac 1470 fluorescent plate reader. (See Al-ani et. al Journal of Pharmacology and Experimental Therapeutics 290:2, 753-760). Additional compound screening was performed using U87-MG human glioma cells. In this assay cells were labeled with FLIPR Calcium 3 dye (Component A), which was dissolved in 10 mls of Assay Buffer without Probenecid. Loading buffer was prepared by diluting Component A with an additional 90 mls of Assay Buffer without Probenecid, giving a total volume of a 100 ml. For plate loading, 11 mls of FLIPR Calcium 3 dye (Component A) is placed into a 15 ml conical tube+110 μl of 250 mM Probenecid, at a final in-well working volume of 2.5 mM. Finally, 50 μl of Calcium 3 dye was added wells containing 100 μl media, and incubated 1 hr, 37° C., 5% CO2. Calcium signaling was then measured using a Flexstation II (Molecular Devices) following manufacturer's instructions.
Potential antagonist compounds were initially screened at 1 mM compound concentration. Those compounds with activity were then subjected to additional confirmatory testing. Activity is reported as treated/controlled (T/C) where the area under the curve (AUC) of calcium mobilization plots in treated wells is divided by the AUC of calcium mobilization plots in control wells to generate a measure of inhibition.

Molecule	PAR-2 AP2 Signaling Treated/Control	other results
CC(C)CNC(=O)Cc1csc(NC(=O)CCCCCN)n1 [ENMD-1554, 6-amino-hexanoic acid [4-(isobutylcarbamoyl-methyl)-thiazol-2-yl]-amide]	0.44	–
CC(C)CNC(=O)c1cc(CNC(=O)CCCCN)on1 [ENMD-1555, 5-[(5-amino-pentanoylamino)-methyl]-isoxazole-3-carboxylic acid isobutyl-amide]	0.86	–
CC(C)CC(=O)NCc1cc(C(=O)NCCCCCCN)no1 [ENMD-1556, 5-[(3-methyl-butyrylamino)-methyl]-isoxazole-3-carboxylic acid (6-amino-hexyl)-amide]	0.57	–
NCCCCCCNC(=O)c1cc(CNC(=O)CC2CCCCC2)on1 [ENMD-1557, 5-[(2-Cyclohexyl-acetylamino)-methyl]-isoxazole-3-carboxylic acid (6-amino-hexyl)-amide]	0.52	–
NCCCCC(=O)NCc1cc(C(=O)NCC2CCCCC2)no1 [ENMD-1558, 5-[(5-amino-pentanoylamino)-methyl]-isoxazole-3-carboxylic acid cyclohexylmethyl-amide]	0.60	–
NCCCCCNC(=O)Cc1csc(NC(=O)CC2CCCCC2)n1 [ENMD-1559, N-(5-amino-pentyl)-2-[2-(2-cyclohexyl-acetyl-amino)-thiazol-4-yl]-acetamide]	0.52	–
NCCCCCC(=O)Nc1nc(CC(=O)NCC2CCCCC2)cs1 [ENMD-1560, 6-amino-hexanoic acid {4-[(cyclohexylmethyl-carbamoyl)-methyl]-thiazol-2-yl}-amide]	0.48	–
CC(C)CC(=O)Nc1nc(CC(=O)NCCCCCN)cs1 [ENMD-1561, N-{4-[(5-Amino-pentylcarbamoyl)-methyl]-thiazol-2-yl}-3-methyl-butyramide hydrochloride]	–	PAR-2 AP2 Signaling Treated/Control (hydrochloride): 0.89
CC(C)CNC(=O)c1ccc(NCCCCN)nc1 [ENMD-1562, 6-(4-aminobutylamine)-3-(isobutyl)-nicotinoyl amide]	0.57	–
CC(C)CCn1c(=O)n(CCc2ccc(NC(C)C)cc2)c2ccccc21 [ENMD-1563, 1-[4-(isopropylamine)-phenethyl]-3-isopentyl-1H-benzo[d]imidazole-2(3H)-one]	0.62	–
CC(C)Nc1ccc(CCn2c(=O)n(CCC3CCCCC3)c3ccccc32)cc1 [ENMD-1564, 1-[4-(isopropylamine)-phenethyl]-3-(2-cyclo-hexylethyl)-1H-benzo[d]imidazole-2(3H)-one]	1.16	–
NCCCCOc1ccc(OCc2ccccc2)cc1 [ENMD-1566, 4-(4-(benzyloxy)phenoxy)butan-1-amine hydrochloride]	0.01	–
Cl.NCCCOc1ccc(OCC2CCCCC2)cc1 [ENMD-1567, 3-(4-(cyclohexylmethoxy)phenoxy)propan-1-amine hydrochloride]	0.08	–
NCCCCC(=O)Nc1ccc(C(=O)NCC2CCCCC2)cc1 [ENMD-1568, 4-(5-aminopentanamide)-N-(cyclohexylmethyl)-benzamide]	0.92	–
CC(C)CNC(=O)c1cccn1CCCCCCN [ENMD-1569, 1-(6-aminohexyl)-2-[N′-isobutyl]-pyrrole carboxamide]	0.77	–
NCCCCCCn1cccc1C(=O)NCC1CCCCC1 [ENMD-1570]	0.05	–
NCCCCNC(=O)c1cnc(NCC2CCCCC2)cn1 [ENMD-1571, 4-aminobutyl-6-cyclohexanemethylamino-2-pyrazine amide]	0.81	–
O=C(NCCC1CCNCC1)c1cnc(NCC2CCCCC2)cn1 [ENMD-1572, 4-(piperidinethyl)-6-cyclohexanemethylamino-2-pyrazine amide]	0.10	–
CC(C)CCn1c(=O)n(CCc2ccc(N)cc2)c2ccccc21 [ENMD-1573, 1-(4-aminophenethyl)-3-isopentyl-1H-benzo[d]imidazole-2(3H)-one]	0.01	–
Nc1ccc(CCn2c(=O)n(CCC3CCCCC3)c3ccccc32)cc1 [ENMD-1574, 1-(4-aminophenethyl)-3-(2-cyclohexylethyl)-1H-benzo[d]imidazole-2(3H)-one]	0.01	–
CC(C)CC(=O)N1CC2CN(C(=O)Cc3ccc(N)cc3)CC2C1 (stereo not drawn) [ENMD-1763]	0.83	–

Molecule	PAR-2 AP2 Signaling Treated/Control	other results
CC(C)CC(=O)N1CC2CN(C(=O)CCCCCN)CC2C1 (stereo not drawn) [ENMD-1764]	0.96	–
NCCCCCNC(=O)c1ccc(C(=O)NCC2CCCCC2)cc1 [ENMD-1766, N^1-(5-aminopentyl)-N-4-(cyclohexylmethyl)-terephthalamide]	0.73	–
Cl.O=C(CC1CCCCC1)N1CCN(C(=O)C2CCNCC2)CC1 [ENMD-1770, N^1-2-cyclohexylethanoyl-N-4-piperidine-4-carbonyl-piperazine hydrochloride]	0.91	–
Cl.O=C(CC1CCCCC1)Nc1ccc(NC(=O)C2CCCNC2)cc1 (stereo not drawn) [ENMD-1771, N-(4-(2-cyclohexylacetamido)phenyl) piperidine-3-carboxamide hydrochloride]	0.05	–
Cl.O=C(CC1CCCCC1)Nc1ccc(NC(=O)C2CCNCC2)cc1 [ENMD-1772, N-(4-(2-cyclohexylacetamido)phenyl) piperidine-4-carboxamide hydrochloride]	0.73	–
Cl.O=C(CC1CCCCC1)N1CCN(C(=O)C2CCCNC2)CC1 (stereo not drawn) [ENMD-1773, N1-2-cyclohexylethanoyl-N-4-piperidine-3-carbonyl-piperazine hydrochloride]	0.85	–
Cl.N[C@@H]1CCC[C@H](C(=O)N2CCN(C(=O)CC3CCCCC3)CC2)C1 [ENMD-1774, N^1-2-cyclohexylethanoyl-N-4-cis-3-amino-cyclohexane-carbonyl piperazine hydrochloride]	0.75	–
NCCCCCNc1cnc(C(=O)NCC2CCCCC2)cn1 [ENMD-1775, cyclohexylmethyl-6-(5-aminopentaneamino)-2-pyrazine amide]	0.90	–
NCCCCCC(=O)N1CC2CN(C(=O)CC3CCCCC3)CC2C1 (stereo not drawn) [ENMD-1776]	0.82	–
Nc1ccc(CC(=O)N2CC3CN(C(=O)CC4CCCCC4)CC3C2)cc1 (stereo not drawn) [ENMD-1777, 1-(2-(2-(4-aminophenyl)acetyl-hexahydro-pyrrolo[3,4-c]pyrrol-5-(1H)-yl)-2-cyclohexyl)ethan-1-one]	0.64	–
NCCC1CCN(c2cnc(C(=O)NCCC3CCCCC3)cn2)CC1 [ENMD-1778, cyclohexylethyl-6-(4-aminoethylpiperdine)-2-pyrazine amide]	0.05	–
Cl.N[C@H]1CC[C@H](C(=O)N2CCN(C(=O)CC3CCCCC3)CC2)C1 [ENMD-1779, N1-2-cyclohexylethanoyl-N-4-(1R,3R)-1-amino-cyclopentane-3-carbonyl piperazine hydrochloride]	0.89	–
Cl.O=C(CC1CCCCC1)N1CCN(C(=O)C2CNCCO2)CC1 (stereo not drawn) [ENMD-1780, N^1-2-cyclohexylethanoyl-N-4-morpholine-2-carbonyl-piperazine hydrochloride]	0.86	–
Cl.N[C@H]1CC[C@@H](C(=O)N2CCN(C(=O)CC3CCCCC3)CC2)CC1 [ENMD-1781, N^1-2-cyclohexylethanoyl-N-4-cis-4-amino-cyclohexane-carbonyl piperazine hydrochloride]	0.71	–
IG-Dab (Ile-Gly-[Dab]) [ENMD-1024, Dab=diamino butanoic acid]	–	PAR-2 AP2 Signaling Treated/Control (T/C): 0.27
IG-Dap (Ile-Gly-[Dap]) [ENMD-1025, Dap=diamino proprionic acid]	–	PAR-2 AP2 Signaling Treated/Control (T/C): 0.31
IG-Orn (Ile-Gly-[Orn]) [ENMD-1029]	–	PAR-2 AP2 Signaling Treated/Control (T/C): 0.42
IG-dK (Ile-Gly-[dK]) [ENMD-1087]	–	PAR-2 AP2 Signaling Treated/Control (T/C): 0.33
IGK-amide (Ile-Gly-Lys-NH2) [ENMD-1021]	–	PAR-2 AP2 Signaling Treated/Control (T/C): 0.67
IGR [ENMD-1023]	–	PAR-2 AP2 Signaling Treated/Control (T/C): 0.23
L-HyP-GK (L[Hyp]GK) [ENMD-1061]	–	PAR-2 AP2 Signaling Treated/Control (T/C): 1.16
